Activity calls are given as the source filed them.
Columns and labels:
Format in all cases: functional, organism-based
[1] = tested on: Staphylococcus aureus; experiment: Effect on tyrosine metabolism in Staphylococcus aureus USA300 at 4 times MIC by KEGG analysis
[2] = tested on: Staphylococcus aureus; experiment: Antibacterial activity against methicillin-resistant Staphylococcus aureus infected in BALB/c mouse wound model assessed as angiogenesis in skin tissue by measuring increase in CD31 expression at 20 to 80 mg/kg administered topically on days 0, 3 and 6 measured after 12 days by IHC analysis; details: dose 20-80 mg/kg, route top, time 12.0 day
[3] = tested on: Staphylococcus aureus; experiment: Antibacterial activity against Staphylococcus aureus USA300 assessed as acceleration of TCA cycle measured by increase in mqo mRNA level upto 0.25 ug/ml incubated for 6 hrs by RT-PCR analysis; details: dose <= 0.25 µg/ml

Measured: Activity

CCn1c(=O)c(C(=O)Nc2nnc(-c3ccc(C)cn3)s2)c(O)c2ccccc21
active: all assays above

From ChEMBL document CHEMBL6121054, “Discovery of Metabolic Reprogramming 2-Quinolones as Effective Antimicrobials for MRSA-Infected Wound Therapy” (J Med Chem, 2025)
